Test results as given in patent US8685970B2, “Quinolines and related analogs as sirtuin modulators” (GlaxoSmithKline, LLC, priority 2008, dated 2014).

Target: T1, SIRT1 (Homo sapiens, UniProt Q96EB6)
T1 sequence (Q96EB6 1-747): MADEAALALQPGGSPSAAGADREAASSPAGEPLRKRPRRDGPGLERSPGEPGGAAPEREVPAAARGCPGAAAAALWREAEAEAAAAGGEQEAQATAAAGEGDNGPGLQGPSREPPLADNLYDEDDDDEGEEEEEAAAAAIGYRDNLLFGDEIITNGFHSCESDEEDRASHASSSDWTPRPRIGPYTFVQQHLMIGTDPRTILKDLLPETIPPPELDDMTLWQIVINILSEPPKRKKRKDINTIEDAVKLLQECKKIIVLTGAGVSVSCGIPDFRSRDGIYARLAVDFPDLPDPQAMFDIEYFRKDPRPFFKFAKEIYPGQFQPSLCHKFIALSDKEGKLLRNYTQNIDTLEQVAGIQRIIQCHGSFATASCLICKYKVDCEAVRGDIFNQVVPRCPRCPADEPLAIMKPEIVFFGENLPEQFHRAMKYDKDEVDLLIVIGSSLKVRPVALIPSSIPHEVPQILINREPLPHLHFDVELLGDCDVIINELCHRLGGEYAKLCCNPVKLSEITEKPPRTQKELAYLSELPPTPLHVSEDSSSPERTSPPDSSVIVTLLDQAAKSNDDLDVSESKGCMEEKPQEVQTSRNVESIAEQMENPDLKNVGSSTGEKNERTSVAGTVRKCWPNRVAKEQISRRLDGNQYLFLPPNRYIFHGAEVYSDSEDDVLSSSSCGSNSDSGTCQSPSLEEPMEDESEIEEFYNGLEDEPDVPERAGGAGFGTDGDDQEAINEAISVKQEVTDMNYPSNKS
Test: Mass spectrometry based SIRT1 deacetylation assay (activation)
Format: biochemical
Details: 10 nM SIRT1, 0.5 μM peptide substrate, 120 μM βNAD+, 25 min at 25° C.
Method in brief: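 Recombinant N-His-tagged SIRT1 (E. coli BL21(DE3)), 10 nM, incubated 25 min at 25 °C with 0.5 μM biotin/5TMR-labelled acetyl-p53-derived 20-mer peptide and 120 μM βNAD+ in Tris-acetate pH 8 buffer with DTT and BSA. Formic acid stop; MS quantifies acetylated vs deacetylated peptide. EC1.5 = concentration giving 150% activation versus DMSO.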

SMILES | % Fold Act. (percent maximum fold activation) | EC1.5 (concentration of test compound that results in 150% activation of SIRT1)
O=C(Nc1cccc(OC2CCNC2)c1)c1cccc2ccc(-c3cccc(C(F)(F)F)c3)nc12 (stereo not shown) [Compound 257] | A (Fold activation >200%) | A (EC1.5<1.0 uM)
O=C(Nc1ncnc2ccc(-c3cccc(C(F)(F)F)c3)nc12)c1cccc(C(F)(F)F)c1 [Compound 258] |  | C (EC1.5>25 uM)
O=C(Nc1ncnc2ccc(-c3cccc(C(F)(F)F)c3)nc12)c1cscn1 [Compound 259] | A (Fold activation >200%) | A (EC1.5<1.0 uM)
O=C(Nc1cccnc1)c1cccc2ccc(-c3cccc(C(F)F)c3)nc12 [Compound 260] | A (Fold activation >200%) | A (EC1.5<1.0 uM)
O=C(Nc1nc(CN2CCCC2)cs1)c1cccc2ccc(-c3cccc(C(F)F)c3)nc12 [Compound 261] | A (Fold activation >200%) | A (EC1.5<1.0 uM)
O=C(Nc1ncc(CN2CCCC2)s1)c1cccc2ccc(-c3cccc(C(F)F)c3)nc12 [Compound 262] | A (Fold activation >200%) | B (EC1.5 1-25 uM)
O=C(Nc1cccnn1)c1cccc2ccc(-c3cccnc3)nc12 [Compound 263] | A (Fold activation >200%) | A (EC1.5<1.0 uM)
Cc1nnc(NC(=O)c2cccc3ccc(-c4cccnc4)nc23)o1 [Compound 264] |  | C (EC1.5>25 uM)
O=C(Nc1ccc(F)cn1)c1cccc2ccc(-c3cccnc3)nc12 [Compound 265] |  | C (EC1.5>25 uM)
O=C(Nc1ccc(Cl)cn1)c1cccc2ccc(-c3cccnc3)nc12 [Compound 266] |  | C (EC1.5>25 uM)
Cc1cc(C)nc(NC(=O)c2cccc3ccc(-c4cccc(N5CCOCC5)c4)nc23)c1 [Compound 267] | A (Fold activation >200%) | A (EC1.5<1.0 uM)
Cc1cccc(NC(=O)c2cccc3ccc(-c4cccc(N5CCOCC5)c4)nc23)n1 [Compound 268] | A (Fold activation >200%) | A (EC1.5<1.0 uM)
O=C(Nc1cccnn1)c1cccc2ccc(-c3cccc(N4CCOCC4)c3)nc12 [Compound 269] | A (Fold activation >200%) | A (EC1.5<1.0 uM)
O=C(Nc1nccs1)c1cccc2cnc(-c3cccc(C(F)(F)F)c3)nc12 [Compound 270] |  | C (EC1.5>25 uM)
O=C(Nc1ccncn1)c1cccc2cnc(-c3cccc(C(F)(F)F)c3)nc12 [Compound 271] | B (Fold Activation <200%) | B (EC1.5 1-25 uM)
Cn1ccc(NC(=O)c2cccc3ccc(-c4cccc(C(F)(F)F)c4)nc23)n1 [Compound 272] | A (Fold activation >200%) | A (EC1.5<1.0 uM)
O=S(=O)(Nc1cccc2ccc(-c3cccc(C(F)(F)F)c3)nc12)c1ccccn1 [Compound 273] |  | C (EC1.5>25 uM)
O=C(Nc1nc(CN2CCOCC2)cs1)c1cccc2ccc(-c3ccccc3C(F)(F)F)nc12 [Compound 274] | A (Fold activation >200%) | A (EC1.5<1.0 uM)
Cc1nnc(NC(=O)c2cccc3ccc(-c4cccc(C(F)(F)F)c4)nc23)s1 [Compound 275] | B (Fold Activation <200%) | A (EC1.5<1.0 uM)
Cc1nnc(NC(=O)c2cccc3ccc(-c4cccc(N5CCOCC5)c4)nc23)o1 [Compound 276] | A (Fold activation >200%) | A (EC1.5<1.0 uM)
O=C(Nc1ccc(F)cn1)c1cccc2ccc(-c3cccc(N4CCOCC4)c3)nc12 [Compound 277] | A (Fold activation >200%) | A (EC1.5<1.0 uM)

SMILES | % Fold Act. (percent maximum fold activation) | EC1.5 (concentration of test compound that results in 150% activation of SIRT1)
O=C(Nc1ccc(Cl)cn1)c1cccc2ccc(-c3cccc(N4CCOCC4)c3)nc12 [Compound 278] | A (Fold activation >200%) | A (EC1.5<1.0 uM)
O=C(Nc1cnccn1)c1cccc2ccc(-c3cccc(N4CCOCC4)c3)nc12 [Compound 279] | A (Fold activation >200%) | A (EC1.5<1.0 uM)
O=C(Nc1nccs1)c1cccc2cnc(-c3cccnc3)nc12 [Compound 280] |  | C (EC1.5>25 uM)
Cc1csc(NC(=O)c2cccc3cnc(-c4cccc(C(F)(F)F)c4)nc23)n1 [Compound 281] | A (Fold activation >200%) | B (EC1.5 1-25 uM)
O=C(Nc1cccnc1)c1cccc2cnc(-c3cccc(C(F)(F)F)c3)nc12 [Compound 282] |  | C (EC1.5>25 uM)
O=C(Nc1ccccn1)c1cccc2cnc(-c3cccc(C(F)(F)F)c3)nc12 [Compound 283] |  | C (EC1.5>25 uM)
Cn1ccc(C(=O)Nc2cccc3ccc(-c4cncc(F)c4)nc23)n1 [Compound 284] |  | C (EC1.5>25 uM)
O=C(Nc1ccc(CN2CCCC2)cn1)c1cccc2ccc(-c3cccc(C(F)(F)F)c3)nc12 [Compound 285] | A (Fold activation >200%) | A (EC1.5<1.0 uM)
O=C(Nc1cccc(CN2CCOCC2)c1)c1cccc2ccc(-c3cccc(C(F)F)c3)nc12 [Compound 286] | A (Fold activation >200%) | A (EC1.5<1.0 uM)
O=C(Nc1cccc(CN2CCOCC2)n1)c1cccc2ccc(-c3cccc(C(F)F)c3)nc12 [Compound 287] | A (Fold activation >200%) | A (EC1.5<1.0 uM)
O=C(Nc1cccc(CN2CCCC2)n1)c1cccc2ccc(-c3cccc(C(F)F)c3)nc12 [Compound 288] | A (Fold activation >200%) | A (EC1.5<1.0 uM)
O=C(Nc1ccc(CN2CCOCC2)nc1)c1cccc2ccc(-c3cccc(C(F)F)c3)nc12 [Compound 289] | A (Fold activation >200%) | A (EC1.5<1.0 uM)
O=C(Nc1ccc(CN2CCCC2)nc1)c1cccc2ccc(-c3cccc(C(F)F)c3)nc12 [Compound 290] | A (Fold activation >200%) | A (EC1.5<1.0 uM)
O=C(Nc1ccc(CN2CCOCC2)nc1)c1cccc2ccc(-c3cccc(C(F)(F)F)c3)nc12 [Compound 291] | A (Fold activation >200%) | A (EC1.5<1.0 uM)
O=C(Nc1ccc(CN2CCCC2)nc1)c1cccc2ccc(-c3cccc(C(F)(F)F)c3)nc12 [Compound 292] | A (Fold activation >200%) | A (EC1.5<1.0 uM)
Cn1ccc(C(=O)Nc2cccc3ccc(-c4cccnc4)nc23)n1 [Compound 293] | A (Fold activation >200%) | A (EC1.5<1.0 uM)
Cn1cnc(C(=O)Nc2cccc3ccc(-c4cccnc4)nc23)c1 [Compound 294] | A (Fold activation >200%) | B (EC1.5 1-25 uM)
Cc1csc(NC(=O)c2cccc3cnc(-c4cccnc4)nc23)n1 [Compound 295] |  | C (EC1.5>25 uM)
O=C(Nc1ccncn1)c1cccc2cnc(-c3cccnc3)nc12 [Compound 296] |  | C (EC1.5>25 uM)
O=C(Nc1cccnc1)c1cccc2cnc(-c3cccnc3)nc12 [Compound 297] |  | C (EC1.5>25 uM)
O=C(Nc1ccccn1)c1cccc2cnc(-c3cccnc3)nc12 [Compound 298] |  | C (EC1.5>25 uM)
